Measured values from ChEMBL document CHEMBL1201862, “PubChem BioAssay data set” (2004).
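How tested: cells in 96-well plates exposed to compound for 48 hours at five concentrations. Here, GI50 denotes the concentration required for 50% inhibition of growth.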 The source made the active and inactive calls. Rule as the data show it: active = GI50 up to about 1.1 µM and inactive = higher.

Key:
Experiment in all cases: DTP human tumour cell line panel, 48 h
[1] = test system: M19-MEL
[2] = test system: ACHN
[3] = test system: HCT-116
[4] = test system: HT-29
[5] = test system: SNB-19
[6] = test system: LOX IMVI
[7] = test system: TK-10
[8] = test system: NCI-H23
[9] = test system: K562
[10] = test system: M14
[11] = test system: UACC-257
[12] = test system: SF-539
[13] = test system: LXFL 529
[14] = test system: XF498
[15] = test system: Malme-3M
[16] = test system: A549
[17] = test system: HOP-18
[18] = test system: KM12
[19] = test system: HL-60
[20] = test system: NCI-H522
[21] = test system: DLD-1
[22] = test system: HCT-15
[23] = test system: MOLT-4
[24] = test system: SF-268
[25] = test system: SN12C
[26] = test system: OVCAR-4
[27] = test system: SF-295
[28] = test system: SK-MEL-28
[29] = test system: SK-MEL-5
[30] = test system: SNB-78
[31] = test system: NCI-H226
[32] = test system: SK-OV-3
[33] = test system: CCRF-CEM
[34] = test system: OVCAR-3
[35] = test system: DMS-114
[36] = test system: NCI-H460
[37] = test system: SK-MEL-2
[38] = test system: OVCAR-8
[39] = test system: U-251
[40] = test system: UACC-62
[41] = test system: SNB-75
[42] = test system: DMS-273
[43] = test system: T47D
[44] = test system: Hs-578T
[45] = test system: RPMI-8226
[46] = test system: PC-3
[47] = test system: MDA-N
[48] = test system: SW-620
[49] = test system: 786-0
[50] = test system: SR
[51] = test system: UO-31
[52] = test system: BT-549
[53] = test system: NCI/ADR-RES
[54] = test system: MDA-MB-231
[55] = test system: DU-145
[56] = test system: IGROV-1
[57] = test system: A498
[58] = test system: HCC 2998
[59] = test system: COLO 205
[60] = test system: MCF7
[61] = test system: MDA-MB-435
[62] = test system: HOP-62
[63] = test system: OVCAR-5
[64] = test system: RXF 393
[65] = test system: EKVX
[66] = test system: HOP-92
[67] = test system: CAKI-1
[68] = test system: KM-20L2

`O=C1NP23(OCCO2)Oc2ccccc2C3(C(F)(F)F)O1` (centres undefined) was tested, and the GI50 [1] was > 100 µM (inactive), the GI50 [2] was > 100 µM (inactive) and the GI50 [3] was > 100 µM (inactive). For the same compound, the GI50 [4] was > 100 µM (inactive), the GI50 [5] was > 100 µM (inactive) and the GI50 [6] was > 100 µM (inactive). For the same compound, the GI50 [7] was > 100 µM (inactive), the GI50 [8] was > 100 µM (inactive) and the GI50 [9] was > 100 µM (inactive). For the same compound, the GI50 [10] was > 100 µM (inactive), the GI50 [11] was > 100 µM (inactive) and the GI50 [12] was > 100 µM (inactive). For the same compound, the GI50 [13] was > 100 µM (inactive), the GI50 [14] was > 100 µM (inactive) and the GI50 [15] was > 100 µM (inactive). For the same compound, the GI50 [16] was > 100 µM (inactive), the GI50 [17] was > 100 µM (inactive) and the GI50 [18] was > 100 µM (inactive). For the same compound, the GI50 [19] was > 100 µM (inactive), the GI50 [20] was > 100 µM (inactive) and the GI50 [21] was > 100 µM (inactive). The GI50 [22] was 72.3 µM, the GI50 [23] was > 100 µM (inactive) and the GI50 [24] was > 100 µM (inactive). The GI50 [25] was > 100 µM (inactive), the GI50 [26] was > 100 µM (inactive) and the GI50 [27] was > 100 µM (inactive). For the same compound, the GI50 [28] was > 100 µM (inactive), the GI50 [29] was > 100 µM (inactive) and the GI50 [30] was > 100 µM (inactive). For the same compound, the GI50 [31] was > 100 µM (inactive), the GI50 [32] was > 100 µM (inactive) and the GI50 [33] was > 100 µM (inactive). The GI50 [34] was > 100 µM (inactive), the GI50 [35] was > 100 µM (inactive) and the GI50 [36] was 78.3 µM (inactive). The GI50 [37] was > 100 µM (inactive), the GI50 [38] was > 100 µM (inactive) and the GI50 [39] was > 100 µM (inactive). For the same compound, the GI50 [40] was > 100 µM (inactive), the GI50 [41] was > 100 µM (inactive) and the GI50 [42] was > 100 µM (inactive).

With `Oc1cc(-c2cccc(Br)c2)nc2cc3c(cc12)OCO3` the GI50 [1] was 4.37 µM (inactive), the GI50 [2] was 5.32 µM (inactive) and the GI50 [3] was 3.53 µM (inactive). For the same compound, the GI50 [4] was 30.9 µM (inactive), the GI50 [5] was 3.37 µM (inactive) and the GI50 [6] was 2.75 µM (inactive). The GI50 [43] was 14.6 µM (inactive), the GI50 [44] was 3.32 µM (inactive) and the GI50 [7] was 12.9 µM (inactive). For the same compound, the GI50 [45] was 15 µM (inactive), the GI50 [46] was 5.43 µM (inactive) and the GI50 [8] was 5.38 µM (inactive). The GI50 [47] was 310 nM (active), the GI50 [9] was 3.74 µM (inactive) and the GI50 [10] was 2.65 µM (inactive). For the same compound, the GI50 [11] was 5.24 µM (inactive), the GI50 [48] was 3.61 µM (inactive) and the GI50 [49] was 3.52 µM (inactive). The GI50 [12] was 2.19 µM (inactive), the GI50 [13] was 2.26 µM (inactive) and the GI50 [14] was 4.16 µM (inactive). For the same compound, the GI50 [50] was 1.93 µM (inactive), the GI50 [15] was 2.7 µM (inactive) and the GI50 [16] was 7.24 µM (inactive). For the same compound, the GI50 [17] was 15.7 µM (inactive), the GI50 [18] was 3 µM (inactive) and the GI50 [19] was 3.57 µM (inactive). The GI50 [20] was 3.93 µM (inactive), the GI50 [51] was 5.81 µM (inactive) and the GI50 [21] was 3.16 µM (inactive). For the same compound, the GI50 [52] was 3.6 µM (inactive), the GI50 [53] was 4.56 µM (inactive) and the GI50 [22] was 4.14 µM. The GI50 [23] was 72.3 µM (inactive), the GI50 [54] was 10.1 µM (inactive) and the GI50 [24] was 4.36 µM (inactive). For the same compound, the GI50 [55] was 5.43 µM (inactive), the GI50 [25] was 5.6 µM (inactive) and the GI50 [56] was 1.8 µM (inactive). The GI50 [57] was 3.08 µM (inactive), the GI50 [58] was 15.1 µM (inactive) and the GI50 [26] was > 30.8 µM (inactive). For the same compound, the GI50 [27] was 1.06 µM (active), the GI50 [28] was 2.77 µM (inactive) and the GI50 [29] was 1.38 µM (inactive). For the same compound, the GI50 [59] was 32 µM (inactive), the GI50 [60] was 18.7 µM (inactive) and the GI50 [30] was 3.37 µM (inactive). For the same compound, the GI50 [31] was 6.75 µM (inactive), the GI50 [32] was 3.8 µM (inactive) and the GI50 [33] was 8.38 µM (inactive). For the same compound, the GI50 [34] was 3.01 µM (inactive), the GI50 [35] was 2.85 µM (inactive) and the GI50 [36] was 4.01 µM (inactive). The GI50 [37] was 2.16 µM (inactive), the GI50 [61] was 883 nM (active) and the GI50 [38] was 4.57 µM (inactive). For the same compound, the GI50 [39] was 3.56 µM (inactive), the GI50 [62] was 1.99 µM (inactive) and the GI50 [63] was 51.5 µM (inactive). For the same compound, the GI50 [40] was 1.75 µM (inactive), the GI50 [41] was 2.72 µM (inactive) and the GI50 [64] was 4.33 µM (inactive). The GI50 [42] was 4.37 µM (inactive).

`CN(/N=C/c1cccc2cccnc12)c1ccc([N+](=O)[O-])cc1` was tested, and the GI50 [1] was > 100 µM (inactive), the GI50 [2] was > 100 µM (inactive) and the GI50 [3] was > 100 µM (inactive). For the same compound, the GI50 [4] was 20.7 µM (inactive), the GI50 [5] was > 100 µM (inactive) and the GI50 [6] was > 100 µM (inactive). For the same compound, the GI50 [7] was 91.2 µM (inactive), the GI50 [45] was > 100 µM (inactive) and the GI50 [8] was > 100 µM (inactive). The GI50 [65] was > 100 µM (inactive), the GI50 [9] was > 100 µM (inactive) and the GI50 [10] was > 100 µM (inactive). For the same compound, the GI50 [11] was > 100 µM (inactive), the GI50 [48] was > 100 µM (inactive) and the GI50 [49] was > 100 µM (inactive). For the same compound, the GI50 [12] was 7.69 µM (inactive), the GI50 [13] was > 100 µM (inactive) and the GI50 [14] was > 100 µM (inactive). For the same compound, the GI50 [66] was > 100 µM (inactive), the GI50 [15] was > 100 µM (inactive) and the GI50 [16] was 48.1 µM (inactive). For the same compound, the GI50 [17] was > 100 µM (inactive), the GI50 [18] was > 100 µM (inactive) and the GI50 [19] was > 100 µM (inactive). For the same compound, the GI50 [21] was > 100 µM (inactive), the GI50 [22] was > 100 µM and the GI50 [23] was > 100 µM (inactive). For the same compound, the GI50 [24] was > 100 µM (inactive), the GI50 [67] was > 100 µM (inactive) and the GI50 [68] was > 100 µM (inactive). For the same compound, the GI50 [25] was > 100 µM (inactive), the GI50 [56] was > 100 µM (inactive) and the GI50 [57] was > 100 µM (inactive). For the same compound, the GI50 [58] was > 100 µM (inactive), the GI50 [27] was > 100 µM (inactive) and the GI50 [28] was > 100 µM (inactive). For the same compound, the GI50 [29] was > 100 µM (inactive), the GI50 [59] was > 100 µM (inactive) and the GI50 [30] was > 100 µM (inactive). For the same compound, the GI50 [31] was > 100 µM (inactive), the GI50 [32] was 43.1 µM (inactive) and the GI50 [33] was > 100 µM (inactive). For the same compound, the GI50 [34] was > 100 µM (inactive), the GI50 [35] was > 100 µM (inactive) and the GI50 [36] was 8.07 µM (inactive). For the same compound, the GI50 [37] was > 100 µM (inactive), the GI50 [38] was > 100 µM (inactive) and the GI50 [62] was > 100 µM (inactive). For the same compound, the GI50 [63] was > 100 µM (inactive), the GI50 [40] was > 100 µM (inactive) and the GI50 [41] was 21.4 µM (inactive). For the same compound, the GI50 [64] was > 100 µM (inactive) and the GI50 [42] was > 100 µM (inactive).
